Laboratory results: patent US20250332185A1, “Use of a New Therapeutic Combination to Treat Chronic Venous Insufficiency” (KÉRI PHARMA HUNGARY KFT., priority 2021, published 2025)
Like-named read-outs stand apart in the source and are kept apart here.

What was measured:
[1] = tested on: fasting homocysteine levels in healthy young women; conditions: healthy young women with normal homocysteine; folic acid 400 micrograms/day, vitamin B6 2 mg/day; daily for four weeks; cited from earlier work
[2] = tested on: patients with venous circulatory disorders, CEAP stage 2 and CEAP stage 3; assay: Observation test 1: CIVIQ-20 quality-of-life score after 12 weeks of therapy; format: in vivo, human; conditions: for CIVIQ change (score): Visit 1 score - Visit 2 score (negative = improvement), 12 weeks; for CIVIQ (score), Visit 2: after 12 weeks of therapy; for CIVIQ (score), Visit 2 / CIVIQ (score), Visit 1: mean ± SD; for CIVIQ (score), Visit 1: baseline before treatment
Protocol: The study analysed data from a total of 90 people retrospectively.
The analysis was based on consecutive patient data from outpatients who met the inclusion criteria. All patients had venous circulatory disorders, with severity of disease corresponding to CEAP stage 2 and CEAP stage 3. The male:female ratio in the population analysed was 1:2
In total, data from four different patient groups were examined: • Group 1: patients taking 1000 mg of diosmin daily (n=45)· • 30 subjects had homocysteine levels below the risk threshold (<12.5 μmol/L normal homocysteinemia group)· • 15 subjects had homocysteine levels above the risk threshold (>12.5 μmol/L hyperhomocysteinemia group) • Group 2: patients taking a daily combination of 1000 mg diosmin+6 mg folic acid+20 mg vitamin B6 (diosmin plus) (45 patients)· • 30 subjects had homocysteine levels below the risk threshold (<12.5 μmol/L normal homocysteinemia group)· • 15 subjects had homocysteine levels above the risk threshold (>12.5 μmol/L hyperhomocysteinemia group)
The observation period was 12 weeks, during which time patients took the prescribed medication continuously. Before starting the medication treatment, a physical examination (to determine the CEAP stage of chronic venous insufficiency) and homocysteine level determination were performed and a CIVIQ-20 questionnaire was filled out. At the end of the 12-week follow-up period, the tests were repeated. For continuous variables, normality testing was performed. Variables with a normal distribution (age, CIVIQ score at visits 1 and 2) were characterised by the mean+SD, while variables with a non-normal distribution (homocysteine level at visits 1 and 2) were characterised by the median (25; 75 percentile). Differences in the values of variables with normal distribution by subgroup was tested by t test, and difference in the values of variables with non-normal distribution by subgroup was tested by chi-squared test.
(§1) The factors determining the increase in CIVIQ score were analysed using simple and complex linear regression. In the composite model, age and gender were included as significant regressors. […] The fit of the final composite linear model was characterised using the Ramsey RESET test and the Breusch-Pagan/Cook-Weisberg test. Model fit is indicated by a value of p>0.05. The composite model was also stratified according to baseline homocysteine level (normal vs. low), to investigate the interaction between baseline homocysteine level and the therapy used.

[3] = tested on: patients with venous circulatory disorders, CEAP stage 6 (leg ulcer); assay: Observation test 2: area of leg ulcer after 12 weeks of therapy; format: in vivo, human; conditions: median (25; 75 percentile); for change in ulcer size: 1st visit - 2nd visit (positive = reduction), 12 weeks; for ulcer size, Visit 2: after 12 weeks of therapy; for ulcer size, Visit 1: baseline before treatment
Protocol: Data from a total of 60 people were analysed retrospectively. Patients attending outpatient care consecutively who met the inclusion criteria were included in the retrospective analysis. Patients all had venous circulatory disorders with a severity of disease corresponding to CEAP stage 6. The male:female ratio in the analysed population was 1:2. The data of a total of four different patient groups were analysed as follows. • Group 1: patients taking 1000 mg of diosmin daily (n=30) • 15 patients had homocysteine levels below the risk threshold (<12.5 μmol/L, normal homocysteinemia group). • 15 patients had homocysteine levels above the risk threshold (>12.5 μmol/L hyperhomocysteinemia group) • Group 2: patients taking a daily combination of 1000 mg diosmin+3 mg folic acid+20 mg vitamin B6 (diosmin plus) (30 patients) • 15 patients had homocysteine levels below the risk threshold (<12.5 μmol/L normal homocysteinemia group). • 15 patients had homocysteine levels above the risk threshold (>12.5 μmol/L hyperhomocysteinemia group) • Group 3: patients taking a combination of 3 mg folic acid+20 mg vitamin B6 (diosmin plus) daily (30 patients) • 15 patients had homocysteine levels below the risk threshold (<12.5 μmol/L normal homocysteinemia group). • 15 patients had homocysteine levels above the risk threshold (>12.5 μmol/L hyperhomocysteinemia group)
The observation period was 12 weeks, during which time patients took the prescribed medication continuously. Before starting the medication treatment, a physical examination (to determine the CEAP stage of chronic venous insufficiency) and homocysteine level determination were performed. The area of the leg ulcer developed based on the venous circulatory disorder was also determined.
At the end of the 12-week observation period, the tests were repeated. For continuous variables, normality tests were performed. Variables with a normal distribution (age) were characterised by the mean+SD, variables with a non-normal distribution (homocysteine level at visits 1 and 2, leg ulcer area at visits 1 and 2) were characterised by the median (25; 75 percentile). For comparisons between two subgroups, the difference in the values of variables with normal distribution by subgroup was tested by t test, and the difference in the values of variables with non-normal distribution by subgroup was tested by chi-squared test.
as §1, with “effectiveness of the therapy was characterised by the change in the area of the leg ulcer. Factors” for “factors”, “change” for “increase”, “ulcer size” for “CIVIQ score”, “were” for “were included as”

homocysteine level [4] = assay: Observation test 2: homocysteine level determination; format: in vivo, human; conditions: median (25; 75 percentile); for homocysteine, Visit 2: after 12 weeks of therapy; for homocysteine, Visit 1: baseline before treatment, CEAP 6
Protocol: Data from a total of 60 people were analysed retrospectively. Patients attending outpatient care consecutively who met the inclusion criteria were included in the retrospective analysis. Patients all had venous circulatory disorders with a severity of disease corresponding to CEAP stage 6. The male:female ratio in the analysed population was 1:2. The data of a total of four different patient groups were analysed as follows. • Group 1: patients taking 1000 mg of diosmin daily (n=30) • 15 patients had homocysteine levels below the risk threshold (<12.5 μmol/L, normal homocysteinemia group). • 15 patients had homocysteine levels above the risk threshold (>12.5 μmol/L hyperhomocysteinemia group) • Group 2: patients taking a daily combination of 1000 mg diosmin+3 mg folic acid+20 mg vitamin B6 (diosmin plus) (30 patients) • 15 patients had homocysteine levels below the risk threshold (<12.5 μmol/L normal homocysteinemia group). • 15 patients had homocysteine levels above the risk threshold (>12.5 μmol/L hyperhomocysteinemia group) • Group 3: patients taking a combination of 3 mg folic acid+20 mg vitamin B6 (diosmin plus) daily (30 patients) • 15 patients had homocysteine levels below the risk threshold (<12.5 μmol/L normal homocysteinemia group). • 15 patients had homocysteine levels above the risk threshold (>12.5 μmol/L hyperhomocysteinemia group) The observation period was 12 weeks, during which time patients took the prescribed medication continuously. Before starting the medication treatment, a physical examination (to determine the CEAP stage of chronic venous insufficiency) and homocysteine level determination were performed. The area of the leg ulcer developed based on the venous circulatory disorder was also determined. At the end of the 12-week observation period, the tests were repeated. For continuous variables, normality tests were performed. Variables with a normal distribution (age) were characterised by the mean+SD, variables with a non-normal distribution (homocysteine level at visits 1 and 2, leg ulcer area at visits 1 and 2) were characterised by the median (25; 75 percentile). For comparisons between two subgroups, the difference in the values of variables with normal distribution by subgroup was tested by t test, and the difference in the values of variables with non-normal distribution by subgroup was tested by chi-squared test.

homocysteine level [5] = assay: Observation test 1: homocysteine level determination; format: in vivo, human; conditions: median (25; 75 percentile); for homocysteine, Visit 2: after 12 weeks of therapy; for homocysteine, Visit 1: baseline before treatment, CEAP 2-3
Protocol: The analysis was based on consecutive patient data from outpatients who met the inclusion criteria. All patients had venous circulatory disorders, with severity of disease corresponding to CEAP stage 2 and CEAP stage 3. The male:female ratio in the population analysed was 1:2 In total, data from four different patient groups were examined: • Group 1: patients taking 1000 mg of diosmin daily (n=45)· • 30 subjects had homocysteine levels below the risk threshold (<12.5 μmol/L normal homocysteinemia group)· • 15 subjects had homocysteine levels above the risk threshold (>12.5 μmol/L hyperhomocysteinemia group) • Group 2: patients taking a daily combination of 1000 mg diosmin+6 mg folic acid+20 mg vitamin B6 (diosmin plus) (45 patients)· • 30 subjects had homocysteine levels below the risk threshold (<12.5 μmol/L normal homocysteinemia group)· • 15 subjects had homocysteine levels above the risk threshold (>12.5 μmol/L hyperhomocysteinemia group) The observation period was 12 weeks, during which time patients took the prescribed medication continuously. Before starting the medication treatment, a physical examination (to determine the CEAP stage of chronic venous insufficiency) and homocysteine level determination were performed and a CIVIQ-20 questionnaire was filled out. At the end of the 12-week follow-up period, the tests were repeated. For continuous variables, normality testing was performed. Variables with a normal distribution (age, CIVIQ score at visits 1 and 2) were characterised by the mean+SD, while variables with a non-normal distribution (homocysteine level at visits 1 and 2) were characterised by the median (25; 75 percentile). Differences in the values of variables with normal distribution by subgroup was tested by t test, and difference in the values of variables with non-normal distribution by subgroup was tested by chi-squared test.

[6] = tested on: patients with venous ulcers; conditions: cited from earlier work
[7] = tested on: homocysteine levels in untreated hypertensive patients; conditions: cited from earlier work; for homocysteine levels increased by: end of 4.5-year treatment
[8] = tested on: systolic blood pressure in untreated hypertensive patients; conditions: interval in brackets, cited from earlier work
[9] = hyperhomocysteine group (>12.5 μmol/L)
[10] = normal homocysteine group (<12.5 μmol/L)

In the case of `Cc1ncc(CO)c(CO)c1O.Cl` [Vitamin B6, vitamin B6], the “reduction of homocysteine levels” value [1] is listed as “no effect”.

For `COc1ccc(-c2cc(=O)c3c(O)cc(O[C@@H]4O[C@H](CO[C@@H]5O[C@@H](C)[C@H](O)[C@@H](O)[C@H]5O)[C@@H](O)[C@H](O)[C@H]4O)cc3o2)cc1O` [diosmin], the “CIVIQ change (score)” value ([2]; hyperhomocysteine group) was −14.56 ± 15.86 score, the “CIVIQ change (score)” value ([2]; normal homocysteine group) was −12.09 ± 1.23 score and the “CIVIQ (score), Visit 2” value ([2]; hyperhomocysteine group) was 79.71 ± 10.81 score. For the same compound, the “CIVIQ (score), Visit 2” value ([2]; normal homocysteine group) was 78.44 ± 8.75 score, the “CIVIQ (score), Visit 1” value ([2]; hyperhomocysteine group) was 65.14 ± 8.45 score and the “CIVIQ (score), Visit 1” value ([2]; normal homocysteine group) was 66.09 ± 9.91 score. The “change in ulcer size” value ([3]; hyperhomocysteine group) was 2.61 (2.01; 3.29) cm^2, the “change in ulcer size” value ([3]; normal homocysteine group) was 1.11 (0.64; 2.26) cm^2 and the “ulcer size, Visit 2” value ([3]; hyperhomocysteine group) was 10.56 (10.28; 10.91) cm^2. For the same compound, the “ulcer size, Visit 2” value ([3]; normal homocysteine group) was 7.09 (6.12; 7.67) cm^2, the “ulcer size, Visit 1” value ([3]; hyperhomocysteine group) was 13.62 (12.44; 13.85) cm^2 and the “ulcer size, Visit 1” value ([3]; normal homocysteine group) was 8.11 (7.07; 8.73) cm^2. The “homocysteine, Visit 2” value (homocysteine level [4]; hyperhomocysteine group) was 19.13 (18.75; 19.42) μmol/L, the “homocysteine, Visit 2” value (homocysteine level [4]; normal homocysteine group) was 10.89 (10.21; 11.17) μmol/L and the “homocysteine, Visit 1” value (homocysteine level [4]; [9]) was 20.73 (20.16; 21.21) μmol/L. The “homocysteine, Visit 1” value (homocysteine level [4]; [10]) was 11.82 (11.59; 12.24) μmol/L, the “homocysteine, Visit 2” value (homocysteine level [5]; hyperhomocysteine group) was 11.69 (11.52; 11.91) μmol/L and the “homocysteine, Visit 2” value (homocysteine level [5]; normal homocysteine group) was 7.39 (7.65; 7.80) μmol/L. For the same compound, the “homocysteine, Visit 1” value (homocysteine level [5]; [9]) was 14.74 (13.24; 15.79) μmol/L and the “homocysteine, Visit 1” value (homocysteine level [5]; [10]) was 8.00 (7.23; 8.83) μmol/L.

In the case of `Nc1nc2ncc(CNc3ccc(C(=O)N[C@@H](CCC(=O)O)C(=O)O)cc3)nc2c(=O)[nH]1` [folic acid], the “ulcer healing” value ([6]; chronic venous ulcer disease with hyperhomocysteinemia) is given as “accelerated ulcer healing”, the cure rate ([6]; group A: hyperhomocysteinemia, folic acid 1.2 mg/day for 12 months plus basic treatment, group B basic treatment only 63·33%, P<0.05) is given as 78.75% and the “reduction of homocysteine levels” value [1] is given as 11.5%.

In the case of `CCOC(=O)[C@H](CCc1ccccc1)N[C@@H](C)C(=O)N1CCC[C@H]1C(=O)O` [enalapril], the “homocysteine levels increased by” value ([7]; baseline homocysteine <10 μmol/L) is listed as 1.7 µmol/L, the “homocysteine levels increased by” value ([7]; baseline homocysteine between 10 and 15 μmol/L) is listed as 1.1 µmol/L and the “homocysteine levels decreased by” value ([7]; baseline homocysteine ≥15 μmol/L, median 4.5 years, 10 mg enalapril, 0.8 mg folic acid daily) is listed as 2.4 µmol/L. For the same compound, the “Reduction in systolic blood pressure” value ([8]; baseline homocysteine 10-<15 versus reference category <10) was −0.77 (−1.53; −0.01) mm Hg and the “Reduction in systolic blood pressure” value ([8]; baseline homocysteine ≥15 versus reference category <10) was −1.70 (−2.68; −0.72) mm Hg.
